In patent publication US11793880B2, “Conjugates of quaternized tubulysin compounds” (Seagen Inc., priority 2015, dated 2023):

What was measured:
Format in all cases: cell-based
[1] = system: HL60, AML; assay: In vitro assays - tubulysin free drugs, CellTiter-Glo growth inhibition; details: Homo sapiens, HL-60, 96 h
Description: (§1) In vitro assays. Cells cultured in log-phase growth were seeded for 24 h in 96-well plates containing 150 μL RPMI 1640 supplemented with 20% FBS. Serial dilutions of antibody-drug conjugates in cell culture media were prepared at 4× working concentrations; 50 μL of each dilution was added to the 96-well plates. Following addition of ADC, cells were incubated with test articles for 4 d at 37° C. After 96 h, growth inhibition was assessed by CellTiter-Glo® (Promega, Madison, WI) and luminescence was measured on a plate reader. The IC50 value, determined in triplicate, is defined here as the concentration that results in a 50% reduction in cell growth relative to untreated controls.
(§2) In vitro assays—tubulysin free drugs. Cells were treated for 96 hours with tubulysin ether analogs (40-42) or tubulysin M (7), then assessed for viability as described in the methods.
(§3) The tubulysin ester analogs (133-137) and unsaturated ether analogs (176-179) were tested in vitro for potency relative to tubulysin M (7), following a 96 hour exposure. As shown by IC50 values (nM) of Table 2, Tubulysin esters 133-136 performed comparably to tubulysin M, with similar potencies across of the cell lines.
(§4) A series of analogues of the ethyl ether tubulysin compound TubOEt (41) were synthesized on solid phase lanterns that maintain the ethyl ether substitution, while either varying the residue at the Ile position (203-215) or the Mep position (216-221). Following cleavage from the solid phase, the analogues were obtained in >85% purity and tested without further purification. The compounds were tested in vitro for potency relative to a sample of TubOEt synthesized in parallel on a lantern (41-lantern), following a 96 hour exposure, with IC5O values expressed in nM (Table 3). While in many cases an attenuation in activity was observed relative to 41-lantern, some well-tolerated substitutions were found. […] While this stereochemical preference is not observed when Ile is replaced with O-methyl threonine (207) or O-methyl allothreonine (206), bulkier substituents led to a greater differentiation. […] Replacement of the Mep residue was generally less-well tolerated.

[2] = system: L540cy, HL; assay: as above; details: L540cy, 96 h
Description: as §1, §2, §3, §4

[3] = system: HL60/RV, MDR + AML; assay: as above; details: Homo sapiens, HL-60, 96 h
Description: as §1, §2, §3, §4

[4] = system: L428, MDR + HL; assay: as above; details: Homo sapiens, L-428, 96 h, free drug
Description: as §1, §2, §3

[5] = system: Karpas299, ALCL; assay: as above; details: Homo sapiens, KARPAS-299, 96 h, free drug
Description: as §1, §2, §3

[6] = system: HepG2, HCC; assay: In vitro assays - TubOEt analogues, CellTiter-Glo growth inhibition; details: Homo sapiens, Table 3, lantern-made analogues >85% purity, 96 hour exposure
Description: as §1, §4

[7] = system: U266 MM; assay: as above; details: Homo sapiens, U-266; Table 3; lantern-made analogues >85% purity, 96 hour exposure
Description: as §1, §4

[8] = system: Ramos, NHL; assay: as above; details: Homo sapiens, Table 3, lantern-made analogues >85% purity, 96 hour exposure
Description: as §1, §4

[9] = Table 1 (examples), free drug, 96 hours
[10] = Table 2, free drug, 96 hour exposure
[11] = Table 3, lantern-made analogues >85% purity, 96 hour exposure

## CC[C@H](C)[C@H](NC(=O)[C@H]1CCCCN1C)C(=O)N(C)[C@H](C[C@@H](OC(C)=O)c1nc(C(=O)N[C@@H](Cc2ccccc2)C[C@H](C)C(=O)O)cs1)C(C)C [Compound 7, tubulysin M, reference compound]
[1]; [9]
  IC50: 0.3 nM
[1]; [10]
  IC50: 0.15 nM
[2]; Table 1 (examples), free drug
  IC50: 0.14 nM
[2]; [10]
  IC50: 0.08 nM
[3]; [9]
  IC50: 2.2 nM
[3]; [10]
  IC50: 1 nM
[4]; Table 1 (examples), 96 hours
  IC50: 0.11 nM
[4]; Table 2, 96 hour exposure
  IC50: 0.04 nM
[5]; Table 1 (examples), 96 hours
  IC50: 0.17 nM
[5]; Table 2, 96 hour exposure
  IC50: 0.04 nM

## CCO[C@H](C[C@H](C(C)C)N(C)C(=O)[C@@H](NC(=O)[C@H]1CCCCN1C)C1Cc2ccccc2C1)c1nc(C(=O)N[C@@H](Cc2ccccc2)C[C@H](C)C(=O)O)cs1 [Compound 208, (2S,4R)-4-(2-((1R,3R)-3-((S)-2-(2,3-dihydro-1H-inden-2-yl)-N-methyl-2-((R)-1-methylpiperidine-2-carboxamido)acetamido)-1-ethoxy-4-methylpentyl)thiazole-4-carboxamido)-2-methyl-5-phenylpentanoic acid]
[1]; [11]
  IC50: 221 nM
[2]; [11]
  IC50: 58 nM
[3]; [11]
  IC50: > 1000 nM
[6]
  IC50: 250 nM
[7]
  IC50: 40 nM
[8]
  IC50: 44 nM

## CCO[C@H](C[C@H](C(C)C)N(C)C(=O)[C@@H](NC(=O)[C@H]1CCCCN1C)[C@H](C)OC)c1nc(C(=O)N[C@@H](Cc2ccccc2)C[C@H](C)C(=O)O)cs1 [Compound 206, (2S,4R)-4-(2-((1R,3R)-1-ethoxy-3-((2S,3S)-3-methoxy-N-methyl-2-((R)-1-methylpiperidine-2-carboxamido)butanamido)-4-methylpentyl)thiazole-4-carboxamido)-2-methyl-5-phenylpentanoic acid]
[1]; [11]
  IC50: 16 nM
[2]; [11]
  IC50: 6 nM
[3]; [11]
  IC50: > 1000 nM
[6]
  IC50: 41 nM
[7]
  IC50: 3 nM
[8]
  IC50: 2 nM

## CC[C@H](C)[C@H](NC(=O)[C@H]1CCCCN1C)C(=O)N(C)[C@H](C[C@@H](OC(=O)C(C)C)c1nc(C(=O)N[C@@H](Cc2ccccc2)C[C@H](C)C(=O)O)cs1)C(C)C [Compound 135, (2S,4R)-4-(2-((1R,3R)-3-((2S,3S)—N,3-dimethyl-2-((R)-1-methylpiperidine-2-carboxamido)pentanamido)-1-(isobutyryloxy)-4-methylpentyl)thiazole-4-carboxamido)-2-methyl-5-phenylpentanoic acid]
[1]; [10]
  IC50: 0.1 nM
[2]; [10]
  IC50: 0.1 nM
[3]; [10]
  IC50: 6 nM
[4]; Table 2, 96 hour exposure
  IC50: 0.12 nM
[5]; Table 2, 96 hour exposure
  IC50: 0.02 nM

## CCO[C@H](C[C@H](C(C)C)N(C)C(=O)[C@@H](NC(=O)[C@H]1CCCCN1C)C(CC)CC)c1nc(C(=O)N[C@@H](Cc2ccccc2)C[C@H](C)C(=O)O)cs1 [Compound 203, (2S,4R)-4-(2-((1R,3R)-1-ethoxy-3-((S)-3-ethyl-N-methyl-2-((R)-1-methylpiperidine-2-carboxamido)pentanamido)-4-methylpentyl)thiazole-4-carboxamido)-2-methyl-5-phenylpentanoic acid]
[1]; [11]
  IC50: 8 nM
[2]; [11]
  IC50: 1 nM
[3]; [11]
  IC50: 604 nM
[6]
  IC50: 8 nM
[7]
  IC50: 0.5 nM
[8]
  IC50: 0.4 nM

## CCO[C@H](C[C@H](C(C)C)N(C)C(=O)C(NC(=O)[C@H]1CCCCN1C)C12CC(F)(C1)C2)c1nc(C(=O)N[C@@H](Cc2ccccc2)C[C@H](C)C(=O)O)cs1 (stereo partly drawn) [Compound 211, (2S,4R)-4-(2-((1R,3R)-1-ethoxy-3-(2-(3-fluorobicyclo[1.1.1]pentan-1-yl)-N-methyl-2-((R)-1-methylpiperidine-2-carboxamido)acetamido)-4-methylpentyl)thiazole-4-carboxamido)-2-methyl-5-phenylpentanoic acid]
[1]; [11]
  IC50: 5 nM
[2]; [11]
  IC50: 2 nM
[3]; [11]
  IC50: 224 nM
[6]
  IC50: 14 nM
[7]
  IC50: 2 nM
[8]
  IC50: 1 nM

## CCO[C@H](C[C@H](C(C)C)N(C)C(=O)[C@@H](NC(=O)[C@@H](C(C)C)N(C)C)[C@@H](C)CC)c1nc(C(=O)N[C@@H](Cc2ccccc2)C[C@H](C)C(=O)O)cs1 [Compound 220, (2S,4R)-4-(2-((3R,6S,9R,11R)-6-((S)-sec-butyl)-3,9-diisopropyl-2,8-dimethyl-4,7-dioxo-12-oxa-2,5,8-triazatetradecan-11-yl)thiazole-4-carboxamido)-2-methyl-5-phenylpentanoic acid]
[1]; [11]
  IC50: 299 nM
[2]; [11]
  IC50: 13 nM
[3]; [11]
  IC50: > 1000 nM
[6]
  IC50: 41 nM
[7]
  IC50: 10 nM
[8]
  IC50: 10 nM

## CCO[C@H](C[C@H](C(C)C)N(C)C(=O)[C@H](CC1CC1)NC(=O)[C@H]1CCCCN1C)c1nc(C(=O)N[C@@H](Cc2ccccc2)C[C@H](C)C(=O)O)cs1 [Compound 212, (2S,4R)-4-(2-((1R,3R)-3-((S)-3-cyclopropyl-N-methyl-2-((R)-1-methylpiperidine-2-carboxamido)propanamido)-1-ethoxy-4-methylpentyl)thiazole-4-carboxamido)-2-methyl-5-phenylpentanoic acid]
[1]; [11]
  IC50: 8 nM
[2]; [11]
  IC50: 2 nM
[3]; [11]
  IC50: 810 nM
[6]
  IC50: 19 nM
[7]
  IC50: 1 nM
[8]
  IC50: 1 nM

## CCO[C@H](C[C@H](C(C)C)N(C)C(=O)[C@@H](NC(=O)[C@H]1CCCCN1C)[C@@H](C)OC)c1nc(C(=O)N[C@@H](Cc2ccccc2)C[C@H](C)C(=O)O)cs1 [Compound 207, (2S,4R)-4-(2-((1R,3R)-1-ethoxy-3-((2S,3R)-3-methoxy-N-methyl-2-((R)-1-methylpiperidine-2-carboxamido)butanamido)-4-methylpentyl)thiazole-4-carboxamido)-2-methyl-5-phenylpentanoic acid]
[1]; [11]
  IC50: 9 nM
[2]; [11]
  IC50: 6 nM
[3]; [11]
  IC50: > 1000 nM
[6]
  IC50: 46 nM
[7]
  IC50: 2 nM
[8]
  IC50: 2 nM

## CCO[C@H](C[C@H](C(C)C)N(C)C(=O)[C@@H](NC(=O)[C@H]1CCCCN1C)[C@H](C)OC(C)(C)C)c1nc(C(=O)N[C@@H](Cc2ccccc2)C[C@H](C)C(=O)O)cs1 [Compound 214, (2S,4R)-4-(2-((1R,3R)-3-((2S,3S)-3-(tert-butoxy)-N-methyl-2-((R)-1-methylpiperidine-2-carboxamido)butanamido)-1-ethoxy-4-methylpentyl)thiazole-4-carboxamido)-2-methyl-5-phenylpentanoic acid]
[1]; [11]
  IC50: 190 nM
[2]; [11]
  IC50: 30 nM
[3]; [11]
  IC50: > 1000 nM
[6]
  IC50: 91 nM
[7]
  IC50: 22 nM
[8]
  IC50: 20 nM

## CCO[C@H](C[C@H](C(C)C)N(C)C(=O)[C@@H](NC(=O)[C@H]1CCCCN1C)[C@H](C)CC)c1nc(C(=O)N[C@@H](Cc2ccccc2)C[C@H](C)C(=O)O)cs1 [Compound 209, (2S,4R)-4-(2-((1R,3R)-3-((2S,3R)—N,3-dimethyl-2-((R)-1-methylpiperidine-2-carboxamido)pentanamido)-1-ethoxy-4-methylpentyl)thiazole-4-carboxamido)-2-methyl-5-phenylpentanoic acid]
[1]; [11]
  IC50: 15 nM
[2]; [11]
  IC50: 12 nM
[3]; [11]
  IC50: > 1000 nM
[6]
  IC50: 50 nM
[7]
  IC50: 8 nM
[8]
  IC50: 7 nM

## CCO[C@H](C[C@H](C(C)C)N(C)C(=O)[C@H](CC1CCCCC1)NC(=O)[C@H]1CCCCN1C)c1nc(C(=O)N[C@@H](Cc2ccccc2)C[C@H](C)C(=O)O)cs1 [Compound 213, (2S,4R)-4-(2-((1R,3R)-3-((S)-3-cyclohexyl-N-methyl-2-((R)-1-methylpiperidine-2-carboxamido)propanamido)-1-ethoxy-4-methylpentyl)thiazole-4-carboxamido)-2-methyl-5-phenylpentanoic acid]
[1]; [11]
  IC50: 42 nM
[2]; [11]
  IC50: 20 nM
[3]; [11]
  IC50: > 1000 nM
[6]
  IC50: 70 nM
[7]
  IC50: 9 nM
[8]
  IC50: 10 nM
